Marks after values point to notes of the source that are not given here. Numbered stars: 1 amine (or outer) side, 2 acyl side, 3 side chain; on linkers, the order of the positions; unused ones are H or OH. Square brackets hold non-standard residues; d marks the D form. Side chains are listed from the residue outwards. Peptide text beside a SMILES is read from it. * marks the point of attachment. C20 diacid = O=C(O)CCCCCCCCCCCCCCCCCCC(=O)*; γGlu = O=C(O)[C@H](CCC(=O)[*:2])N[*:1]; AEEA = NCCOCCOCC(=O)O; Aib = CC(C)(N)C(=O)O
Tests used:
[1] = system: diet-induced-obesity mice; experiment: Body weight of diet-induced-obesity mice, subcutaneous administration once every 3 days; assay type: in vivo, C57BL/6 mice
human GLP-1R = human GLP-1R (Homo sapiens, UniProt P43220); experiment: Agonist activity against GLP-1R, cAMP HTRF in CHO-K1/GLP-1R/CRE-luc stable cells; conditions: Activity against human GLP-1R (EC50 nM), Table 6 run
Chain of human GLP-1R (P43220 24-463): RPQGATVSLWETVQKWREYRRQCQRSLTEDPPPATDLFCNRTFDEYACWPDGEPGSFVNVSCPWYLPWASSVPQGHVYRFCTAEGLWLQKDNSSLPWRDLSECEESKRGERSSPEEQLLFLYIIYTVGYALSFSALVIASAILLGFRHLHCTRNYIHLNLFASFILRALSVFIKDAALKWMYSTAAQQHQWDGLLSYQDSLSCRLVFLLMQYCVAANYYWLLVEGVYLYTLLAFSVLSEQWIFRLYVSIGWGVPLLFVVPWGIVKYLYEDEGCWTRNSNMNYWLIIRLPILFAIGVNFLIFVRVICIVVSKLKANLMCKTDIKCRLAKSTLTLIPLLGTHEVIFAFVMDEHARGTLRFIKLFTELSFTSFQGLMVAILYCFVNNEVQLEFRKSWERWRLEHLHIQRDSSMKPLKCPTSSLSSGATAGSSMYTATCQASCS

Compound: CC[C@H](C)[C@H](NC(=O)[C@H](CCCCN)NC(=O)[C@H](CCC(=O)O)NC(=O)[C@H](CCCCNC(=O)COCCOCCNC(=O)COCCOCCNC(=O)CC[C@H](NC(=O)CCCCCCCCCCCCCCCCCCC(=O)O)C(=O)O)NC(=O)[C@H](Cc1ccc(O)cc1)NC(=O)[C@@H](NC(=O)[C@H](CO)NC(=O)[C@H](Cc1ccc(O)cc1)NC(=O)[C@H](CC(=O)O)NC(=O)[C@H](CO)NC(=O)[C@@H](NC(=O)[C@H](Cc1ccccc1)NC(=O)[C@@H](NC(=O)CNC(=O)[C@H](CCC(=O)O)NC(=O)C(C)(C)NC(=O)[C@@H](N)Cc1ccc(O)cc1)[C@@H](C)O)[C@@H](C)O)[C@@H](C)CC)C(=O)N[C@@H](C)C(=O)N[C@@H](C)C(=O)N[C@@H](CCC(N)=O)C(=O)N[C@@H](CCC(=O)O)C(=O)N[C@@H](Cc1ccccc1)C(=O)N[C@H](C(=O)N[C@@H](CC(N)=O)C(=O)N[C@@H](Cc1c[nH]c2ccccc12)C(=O)N[C@@H](CC(C)C)C(=O)N[C@@H](CC(C)C)C(=O)N[C@@H](C)C(=O)NCC(=O)NCC(=O)N1CCC[C@H]1C(=O)N[C@@H](CO)C(=O)N[C@@H](CO)C(=O)NCC(=O)N[C@@H](C)C(=O)N1CCC[C@H]1C(=O)N1CCC[C@H]1C(=O)N1CCC[C@H]1C(=O)N[C@@H](CO)C(N)=O)C(C)C [Compound 18#] (H-Y[Aib]EGTFTSDYSIYK([AEEA-AEEA-γGlu-C20 diacid])EKIAAQEFVNWLLAGGPSSGAPPPS-NH2)
- body weight reduced ([1]; 10 nmol/kg dose group, day 27): more than 20.0%
- rate of change in body weight ([1]; 10 nmol/kg, day 0 (before administration)): 0%
- rate of change in body weight ([1]; 10 nmol/kg, day 1 after administration): −6.2 ± 1.1%
- rate of change in body weight ([1]; 10 nmol/kg, day 2 after administration): −8.6 ± 0.9 %
- rate of change in body weight ([1]; 10 nmol/kg, day 3 after administration): −9.4 ± 1.6 %
- rate of change in body weight ([1]; 10 nmol/kg, day 4 after administration): −12.7 ± 2.4 %
- rate of change in body weight ([1]; 10 nmol/kg, day 5 after administration): −14.5 ± 3.3 %
- rate of change in body weight ([1]; 10 nmol/kg, day 6 after administration): −15 ± 5.3 %
- rate of change in body weight ([1]; 10 nmol/kg, day 7 after administration): −18.3 ± 6.3 %
- rate of change in body weight ([1]; 10 nmol/kg, day 8 after administration): −20.1 ± 8***^ %
- rate of change in body weight ([1]; 10 nmol/kg, day 9 after administration): −20.3 ± 9.3 %
- rate of change in body weight ([1]; 10 nmol/kg, day 10 after administration): −23.4 ± 9.8 %
- rate of change in body weight ([1]; 10 nmol/kg, day 11 after administration): −23.9 ± 10.7 %
- rate of change in body weight ([1]; 10 nmol/kg, day 12 after administration): −23.5 ± 11.4 %
- rate of change in body weight ([1]; 10 nmol/kg, day 13 after administration): −26.4 ± 11.8 %
- rate of change in body weight ([1]; 10 nmol/kg, day 14 after administration): −25.1 ± 12.1 %
- rate of change in body weight ([1]; 10 nmol/kg, day 15 after administration): −23.4 ± 9***^ %
- rate of change in body weight ([1]; 10 nmol/kg, day 16 after administration): −26.6 ± 9.7 %
- rate of change in body weight ([1]; 10 nmol/kg, day 17 after administration): −25.7 ± 8.7 %
- rate of change in body weight ([1]; 10 nmol/kg, day 18 after administration): −24.6 ± 8.2 %
- rate of change in body weight ([1]; 10 nmol/kg, day 19 after administration): −27.5 ± 7.6 %
- rate of change in body weight ([1]; 10 nmol/kg, day 20 after administration): −27.3 ± 7.2 %
- rate of change in body weight ([1]; 10 nmol/kg, day 21 after administration): −24.8 ± 6.7 %
- rate of change in body weight ([1]; 10 nmol/kg, day 22 after administration): −28.1 ± 7.4 %
- rate of change in body weight ([1]; 10 nmol/kg, day 23 after administration): −27.1 ± 7***^ %
- rate of change in body weight ([1]; 10 nmol/kg, day 24 after administration): −26 ± 7.1 %
- rate of change in body weight ([1]; 10 nmol/kg, day 25 after administration): −28.5 ± 8.8 %
- rate of change in body weight ([1]; 10 nmol/kg, day 26 after administration): −27.8 ± 8.3 %
- rate of change in body weight ([1]; 10 nmol/kg, day 27 after administration): −24.8 ± 8.4 %
- rate of change in body weight ([1]; 10 nmol/kg, day 28 after administration): −28.2 ± 8.3 %
- rate of change in body weight ([1]; 100 nmol/kg, day 0 (before administration)): 0%
- rate of change in body weight ([1]; 100 nmol/kg, day 1 after administration): −6.3 ± 0.5%
- rate of change in body weight ([1]; 100 nmol/kg, day 2 after administration): −10.9 ± 0.8 %
- rate of change in body weight ([1]; 100 nmol/kg, day 3 after administration): −13.2 ± 1 %
- rate of change in body weight ([1]; 100 nmol/kg, day 4 after administration): −15.7 ± 0.9 %
- rate of change in body weight ([1]; 100 nmol/kg, day 5 after administration): −19.2 ± 1.3 %
- rate of change in body weight ([1]; 100 nmol/kg, day 6 after administration): −21.8 ± 2.3 %
- rate of change in body weight ([1]; 100 nmol/kg, day 7 after administration): −24.7 ± 3.3 %
- rate of change in body weight ([1]; 100 nmol/kg, day 8 after administration): −27.6 ± 3.7 %
- rate of change in body weight ([1]; 100 nmol/kg, day 9 after administration): −29.6 ± 4.7 %
- rate of change in body weight ([1]; 100 nmol/kg, day 10 after administration): −31.6 ± 5.3 %
- rate of change in body weight ([1]; 100 nmol/kg, day 11 after administration): −33.7 ± 6.3 %
- rate of change in body weight ([1]; 100 nmol/kg, day 12 after administration): −34.4 ± 7.1 %
- rate of change in body weight ([1]; 100 nmol/kg, day 13 after administration): −35.6 ± 6.2 %
- rate of change in body weight ([1]; 100 nmol/kg, day 14 after administration): −36.7 ± 5.7 %
- rate of change in body weight ([1]; 100 nmol/kg, day 15 after administration): −35.7 ± 5.6 %
- rate of change in body weight ([1]; 100 nmol/kg, day 17 after administration): −38.2 ± 6.2 %
- rate of change in body weight ([1]; 100 nmol/kg, day 18 after administration): −37.8 ± 6.5 %
- rate of change in body weight ([1]; 100 nmol/kg, day 19 after administration): −38.5 ± 6.5 %
- rate of change in body weight ([1]; 100 nmol/kg, day 20 after administration): −39 ± 6.5 %
- rate of change in body weight ([1]; 100 nmol/kg, day 21 after administration): −37.4 ± 6.6 %
- rate of change in body weight ([1]; 100 nmol/kg, day 22 after administration): −38.3 ± 6.2 %
- rate of change in body weight ([1]; 100 nmol/kg, day 23 after administration): −38 ± 5.9 %
- rate of change in body weight ([1]; 100 nmol/kg, day 24 after administration): −36.8 ± 5.8 %
- rate of change in body weight ([1]; 100 nmol/kg, day 25 after administration): −38.6 ± 5.7 %
- rate of change in body weight ([1]; 100 nmol/kg, day 26 after administration): −38.9 ± 6 %
- rate of change in body weight ([1]; 100 nmol/kg, day 27 after administration): −36.8 ± 5.3 %
- rate of change in body weight ([1]; 100 nmol/kg, day 28 after administration): −37.9 ± 5.7 %
- body weight-reducing effect on high-fat food-induced-obesity mice ([1]; doses of 3, 10 and 100 nmol/kg): significant body weight-reducing effect
- EC50 (human GLP-1R): 0.013 nM
